For nine molecules, inhibition, IC50 and Activity results are on record in ChEMBL document CHEMBL5096243, “Selective TASK-1 Inhibitor with a Defined Structure-Activity Relationship Reduces Cancer Cell Proliferation and Viability” (J Med Chem, 2022).

Experiment [1] addresses T1, Potassium channel subfamily K member 3 (Homo sapiens, UniProt O14649). The experiment in a line: Inhibition of human TASK-1 expressed in Xenopus laevis oocytes assessed as inhibition of channel current at 10 uM at +40mV holding potential by two-electrode voltage clamp assay. The conditions noted are these: Oocyte. The experiment is classed as cell-based.
Target sequence in this assay (O14649 whole entry, looked up): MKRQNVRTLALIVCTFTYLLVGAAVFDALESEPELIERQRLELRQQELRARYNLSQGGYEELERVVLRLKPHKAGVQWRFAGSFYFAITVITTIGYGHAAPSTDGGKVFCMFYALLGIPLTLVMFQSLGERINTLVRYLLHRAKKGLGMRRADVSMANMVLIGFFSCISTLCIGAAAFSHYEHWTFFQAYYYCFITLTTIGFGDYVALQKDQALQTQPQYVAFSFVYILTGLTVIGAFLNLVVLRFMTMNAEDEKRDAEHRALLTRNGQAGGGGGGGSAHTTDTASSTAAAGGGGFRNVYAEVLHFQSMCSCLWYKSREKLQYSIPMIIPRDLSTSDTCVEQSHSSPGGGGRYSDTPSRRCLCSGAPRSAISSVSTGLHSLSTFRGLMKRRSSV
In experiment [2] the target is T2, Potassium channel subfamily K member 9 (Homo sapiens, UniProt Q9NPC2). The experiment in a line: Inhibition of human TASK-3 expressed in Xenopus laevis oocytes assessed as inhibition of channel current at 10 uM at +40mV holding potential by two-electrode voltage clamp assay. The conditions noted are these: Oocyte. The experiment is classed as cell-based.
In experiment [3] the target is T1, Potassium channel subfamily K member 3. The experiment in a line: Inhibition of human TASK-1 expressed in Xenopus laevis oocytes assessed as inhibition of channel current at +40mV holding potential by two-electrode voltage clamp assay. Type of experiment: cell-based, Oocyte.
Target sequence in this assay (O14649 whole entry): as the sequence (O14649 whole entry, looked up) above
The target in experiment [4] is T2, Potassium channel subfamily K member 9. The experiment in a line: Inhibition of human TASK-3 expressed in Xenopus laevis oocytes assessed as inhibition of channel current at +40mV holding potential by two-electrode voltage clamp assay. Type of experiment: cell-based, Oocyte.
Experiment [5] deals with MCF7. The experiment in a line: Antiproliferative activity against human MCF7 cells assessed as inhibition of cell proliferation at 10 uM incubated for 4 days by MTT assay. The experiment is classed as functional. Also on record: scale not given: the % may be the effect or the level left. As to conditions: time 4 day.
The subject of experiment [6] is MCF7. The experiment in a line: Antiproliferative activity against human MCF7 cells with wild type TASK-1 expressing GFP induced by shGFP assessed as inhibition of cell proliferation at 0.148 uM incubated for 24 to 72 hrs by trypan blue exclusion method. Type of experiment: functional, cell-based. As to conditions: time 24-72 hrs.
The test system of experiment [7] is MCF7. The experiment in a line: Antiproliferative activity against human MCF7 cells with shBP3 induced TASK-1 knockdown assessed as inhibition of cell proliferation at 0.148 uM incubated for 24 to 72 hrs by trypan blue exclusion method. Type of experiment: functional, cell-based. As to conditions: time 24-72 hrs.
Experiment [8] relates to MCF7. Kind of experiment: Antiproliferative activity against human MCF7 cells with shBP9 induced TASK-3 knockdown assessed as inhibition of cell proliferation at 0.148 uM incubated for 48 to 72 hrs by trypan blue exclusion method. The experiment is classed as functional, cell-based. The conditions noted are these: time 48-72 hrs.

Calls of active or inactive are those of the source. The calls are words filed in the database; no cut-off is given here.

T2 sequence (Q9NPC2 whole entry): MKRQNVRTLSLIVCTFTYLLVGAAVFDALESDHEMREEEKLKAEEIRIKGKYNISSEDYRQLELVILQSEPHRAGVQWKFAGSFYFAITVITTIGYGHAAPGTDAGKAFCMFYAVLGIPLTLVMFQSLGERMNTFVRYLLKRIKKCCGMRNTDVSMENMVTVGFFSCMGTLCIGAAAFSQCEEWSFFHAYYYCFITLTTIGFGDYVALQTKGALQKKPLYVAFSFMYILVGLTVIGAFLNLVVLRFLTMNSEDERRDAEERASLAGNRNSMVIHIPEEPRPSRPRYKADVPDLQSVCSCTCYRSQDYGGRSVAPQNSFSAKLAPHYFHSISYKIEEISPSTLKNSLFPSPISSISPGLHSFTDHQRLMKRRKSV

In the case of `COc1ccc(NC(=O)c2cccc(NC(=O)c3ccccc3)c2)cc1`, in experiment [1], the inhibition was determined as 10%.

Turning to `O=C(NCc1ccccc1)c1cccc(NC(=O)c2ccccc2)c1`, the inhibition result in experiment [1] and in experiment [2] was “Active” each time.

On to `O=C(Nc1cccc(C(=O)Nc2ccc(F)cc2)c1)c1ccccc1`, for which the inhibition in experiment [1] stood at 25%.

In the case of `O=C(c1ccccc1F)N1CCN(Cc2c(-c3ccc(Br)cc3)nc3ccccn23)CC1`, in experiment [3], the IC50 was 9500 nM.

For the molecule `CCCS(=O)(=O)Nc1ccccc1C(=O)N[C@H](CC)c1ccc(OC)nc1`, the IC50 in experiment [3] amounted to 200 nM.

`CCc1ccccc1NC(=O)c1cccc(NC(=O)c2ccccc2)c1`: the IC50 in experiment [3] turned out to be 148 nM; in experiment [4] it was 1750 nM. The inhibition result in experiment [1] and in experiment [2] was “Active” throughout. Also, in experiment [5], the Activity came out at 45%. The outcome in experiment [6], in experiment [7] and in experiment [8] was Active.

In the case of `O=C(Nc1cccc(C(=O)Nc2nccs2)c1)c1ccccc1`, the IC50 in experiment [3] was 388 nM; in experiment [4], 7170 nM. Also, the inhibition entry in experiment [1] and in experiment [2] was “Active” in each case.

Consider `O=C(c1cccc(OC(F)(F)F)n1)N1CCN(Cc2c(-c3ccc(Cl)cc3)nc3ccccn23)CC1`, for which, in experiment [3], the IC50 was found to be 7600 nM.

As for `O=C(Nc1cccc(C(=O)Nc2ncccc2O)c1)c1ccccc1`, the inhibition entry in experiment [1] and in experiment [2] was “Active” throughout.
